From US7282592B2, “Resorcinol derivatives” (Warner-Lambert Company, priority 2000, dated 2007) come the findings set out here.

The target of this experiment is T1, human tyrosinase (Homo sapiens, UniProt P14679).
T1 construct: endogenous in cells; host or cells: SKMEL 188 human melanoma cell line (lysate)
T1 sequence (P14679 19-529): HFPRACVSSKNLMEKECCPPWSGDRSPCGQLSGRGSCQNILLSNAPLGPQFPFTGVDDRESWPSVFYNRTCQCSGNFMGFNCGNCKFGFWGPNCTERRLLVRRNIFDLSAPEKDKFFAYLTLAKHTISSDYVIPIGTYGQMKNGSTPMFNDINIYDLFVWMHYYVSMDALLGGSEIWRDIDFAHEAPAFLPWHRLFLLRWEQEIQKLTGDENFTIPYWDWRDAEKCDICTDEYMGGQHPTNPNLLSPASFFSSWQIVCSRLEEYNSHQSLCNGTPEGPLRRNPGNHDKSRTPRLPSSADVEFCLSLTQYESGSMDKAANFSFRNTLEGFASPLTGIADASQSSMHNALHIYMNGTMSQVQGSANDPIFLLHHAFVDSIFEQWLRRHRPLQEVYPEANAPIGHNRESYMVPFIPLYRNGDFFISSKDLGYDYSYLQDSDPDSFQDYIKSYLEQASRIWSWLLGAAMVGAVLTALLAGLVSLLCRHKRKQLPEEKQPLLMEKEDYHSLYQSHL
Description: Tyrosinase (DOPA Oxidase) Assay Using Cell Lysate. The class given is biochemical. As to conditions: SKMEL 188 human melanoma cell lysates, L-DOPA 100 μg/ml, incubated 8 hrs, read at 405 nm. The protocol: 1. Tyrosinase (DOPA Oxidase) Assay Using Cell Lysate
Human melanoma cell line, SKMEL 188 (licensed from Memorial Sloan-Kettering), is used in the cell lysate assay and the screen. In the assay, compounds and L-dihydroxyphenylalanine (L-DOPA) (100 μg/ml) are incubated with the cell lysates containing human tyrosinase for 8 hrs before the plates are read at 405 nm.

In the case of `Cc1ccc(S(=O)(=O)N[C@H]2CC[C@H](c3ccc(O)cc3O)CC2)cc1` [Example 14, N-[trans-4-(2,4-Dihydroxyphenyl)cyclohexyl]-4-methylbenzenesulfonamide], the IC50 – broadly, the midpoint of a concentration-inhibition curve – was about 4 µM.
